Laboratory results published in ChEMBL document CHEMBL5137002, “A Comprehensive Biological and Synthetic Perspective on 2-Deoxy-d-Glucose (2-DG), A Sweet Molecule with Therapeutic and Diagnostic Potentials” (J Med Chem, 2022).

Key:
[1] = Drug uptake in tumor of rat measured per gram of tissue at 1 hr; assay type: ADME, tissue-based, Neoplasm; conditions: in vivo
[2] = Ratio of tumor to blood biodistribution in rat after 60 mins; assay type: ADME, organism-based; conditions: tumor and blood
SARS-CoV-2 [3] = assay: Antiviral activity against SARS-CoV-2 B.6 in African green monkey Vero E6 cells assessed as inhibition of virus multiplication; assay type: functional, organism-based; conditions: Severe acute respiratory syndrome coronavirus 2, B.6, Vero C1008
SARS-CoV-2 [4] = assay: Antiviral activity against SARS-CoV-2 B.1.1.7 in African green monkey Vero E6 cells assessed as inhibition of virus multiplication; assay type: functional, organism-based; conditions: Severe acute respiratory syndrome coronavirus 2, B.1.1.7, Vero C1008
SARS-CoV-2 [5] = assay: Antiviral activity against SARS-CoV-2 in African green monkey Vero E6 cells assessed as inhibition of virus multiplication at 1 mM; assay type: functional; conditions: Severe acute respiratory syndrome coronavirus 2, Vero C1008
SARS-CoV-2 [6] = assay: Antiviral activity against SARS-CoV-2 in African green monkey Vero cells assessed as inhibition of virus multiplication in presence of extracellular glucose; assay type: functional, Severe acute respiratory syndrome coronavirus 2
[7] = Competitive inhibition of yeast hexokinase; set-up: species or system Saccharomyces cerevisiae
[8] = Competitive inhibition of rat brain hexokinase
Saccharomyces cerevisiae = assay: Inhibition of yeast hexokinase assessed as Km
U-87 MG [9] = assay: Growth inhibition of human U87 cells under hypoxic condition; assay type: functional, cell-based, U-87MG ATCC
U-87 MG [10] = assay: Growth inhibition of human U87 cells under normoxic condition; assay type: functional, cell-based, U-87MG ATCC

Question: For `OC[C@H]1OC(O)[C@H]([18F])[C@@H](O)[C@@H]1O` (stereo not given in full) [FLUDEOXYGLUCOSE F 18], which Drug uptake [1] is on record?
Answer: The Drug uptake was 2.65%.

Question: What about the Kp at 1 h [2] of the same compound?
Answer: Its Kp at 1 h is 22.1.

Question: With `OC[C@H]1OC(O)C[C@@H](O)[C@@H]1O` (stereo not given in full) as the compound, how does the IC50 (SARS-CoV-2 [3]) read?
Answer: The IC50 was less than 1000 µM.

Question: What about the IC50 (SARS-CoV-2 [4]) of the same compound?
Answer: Its IC50 is less than 1000 µM.

Question: What about the inhibition at 1000 µM (SARS-CoV-2 [5]) of the same compound?
Answer: The inhibition at 1000 µM was 93%.

Question: What about the “inhibition (INH)” value (SARS-CoV-2 [6]) of the same compound?
Answer: The value was 7%.

Question: With `NC1C(O)OC(CO)[C@@H](O)[C@@H]1O` (stereo not given in full) as the compound, how does the Ki [7] read?
Answer: The Ki was 700 µM.

Question: And the Ki [8]?
Answer: The Ki was 300 µM.

Question: With `OC[C@H]1OC(O)[C@H](F)[C@@H](O)[C@@H]1O` (stereo not given in full) as the compound, how does the Km (Saccharomyces cerevisiae) read?
Answer: Its Km is 190 µM.

Question: Which results are given for `OC[C@H]1OC(O)[C@@H]([18F])[C@@H](O)[C@@H]1O` (stereo not given in full)?
Answer: Drug uptake [1]: 2.65%; Kp at 1 h [2]: 29.4

Question: With `CC(=O)OC[C@H]1OC(O)C[C@@H](OC(C)=O)[C@@H]1O` (stereo not given in full) as the compound, how does the IC50 (U-87 MG [9]) read?
Answer: The IC50 was 1000 µM.

Question: And the IC50 (U-87 MG [10])?
Answer: The IC50 was 1000 µM.

Question: Which Km (Saccharomyces cerevisiae) does the source give for `OC[C@H]1OC(O)[C@H](O)[C@@H](O)[C@@H]1F` (stereo not given in full) here?
Answer: Its Km is 84000 µM.

Question: For `OC[C@H]1OC(O)C(F)(F)[C@@H](O)[C@@H]1O` (stereo not given in full), which Km (Saccharomyces cerevisiae) is on record?
Answer: Its Km is 130 µM.

Question: Which Km (Saccharomyces cerevisiae) does the source give for `OC[C@H]1OC(O)[C@H](O)[C@@H](F)[C@@H]1O` (stereo not given in full) here?
Answer: Its Km is 70000 µM.

Question: Which Ki [7] does the source give for `CC(=O)Nc1c(I)c(C(=O)N[C@H]2C(O)O[C@H](CO)[C@@H](O)[C@@H]2O)c(I)c(N(C)C(C)=O)c1I` (stereo not given in full) [METRIZAMIDE] here?
Answer: Its Ki is 700 µM.

Question: And the Ki [8]?
Answer: Its Ki is 20000 µM.

Question: For `OC[C@H]1OC(O)[C@@H](F)[C@@H](O)[C@@H]1O` (stereo not given in full), which Km (Saccharomyces cerevisiae) is on record?
Answer: Its Km is 410 µM.

Question: Which Km (Saccharomyces cerevisiae) does the source give for `OC1C[C@H](O)[C@H](O)CO1` (stereo not given in full) here?
Answer: The Km was 590 µM.
